Values after ≈ are worked out from the molar mass of the structure shown.
Tests used:
Format in all cases: cell-based
[1] = system: Veionella parvula ATCC 17745; experiment: MIC, anaerobic agar dilution (CLSI); conditions: 35° C., 42-48 hours
[2] = system: Fusobacterium nucleatum ATCC 10953; experiment: MIC, anaerobic agar dilution (CLSI); conditions: ATCC10953, 35° C., 42-48 hours
[3] = system: Clostridium perfringens (MET^R) MMX 3521; experiment: microbe, parasite or virus in culture
[4] = system: Peptoniphilus asaccharolyticus ATCC 29743; experiment: MIC, anaerobic agar dilution (CLSI); conditions: ATCC29743, 35° C., 42-48 hours
[5] = system: Prevotella bivia MMX 3450; experiment: MIC, anaerobic agar dilution (CLSI); conditions: MMX3450, 35° C., 42-48 hours
[6] = system: Bacteroides ovatus (MET^R) MMX 3504; experiment: MIC, anaerobic agar dilution (CLSI); conditions: 35° C., 42-48 hours
[7] = system: Peptococcus (niger) ATCC 27731; experiment: MIC, anaerobic agar dilution (CLSI); conditions: ATCC27731, 35° C., 42-48 hours
[8] = system: Bacteroides uniformis MMX 1277; experiment: MIC, anaerobic agar dilution (CLSI); conditions: MMX1277; Bacteroides uniformis MMX 1277; anaerobic, 35° C., 42-48 hours; read-out: MIC
[9] = system: Peptostreptococcus anaerobius ATCC 27337; experiment: MIC, anaerobic agar dilution (CLSI); conditions: ATCC27337, 35° C., 42-48 hours
[10] = system: Bacteroides fragilis (QC) ATCC 25285; experiment: MIC, anaerobic agar dilution (CLSI); conditions: ATCC25285, 35° C., 42-48 hours
[11] = system: Bacteroides gracilis ATCC 33236; experiment: MIC, anaerobic agar dilution (CLSI); conditions: Campylobacter gracilis, ATCC33236; Bacteroides gracilis ATCC 33236; anaerobic, 35° C., 42-48 hours; read-out: MIC
[12] = system: Prevotella bivia ATCC 29303; experiment: MIC, anaerobic agar dilution (CLSI); conditions: ATCC29303, 35° C., 42-48 hours
[13] = system: Lactobacillus jensenii ATCC 25258; experiment: MIC, anaerobic agar dilution (CLSI); conditions: ATCC25258; Lactobacillus jensenii ATCC 25258; anaerobic, 35° C., 42-48 hours; read-out: MIC
[14] = system: Prevotella asaccharolytica (MET^R) MMX 3552; experiment: MIC, anaerobic agar dilution (CLSI); conditions: 35° C., 42-48 hours
[15] = system: Gardnerella vaginalis ATCC 14018; experiment: MIC, anaerobic agar dilution (CLSI); conditions: ATCC14018, 35° C., 42-48 hours
[16] = system: Bacteroides vulgatus MMX 8348; experiment: MIC, anaerobic agar dilution (CLSI); conditions: Phocaeicola vulgatus, MMX8348, 35° C., 42-48 hours
[17] = system: Bacteroides thetaiotaomicron (MET^R) MMX 3409; experiment: microbe, parasite or virus in culture; conditions: Bacteroides thetaiotaomicron
[18] = system: Prevotella intermedia ATCC 25611; experiment: MIC, anaerobic agar dilution (CLSI); conditions: ATCC25611, 35° C., 42-48 hours
[19] = system: Fusobacterium nucleatum ATCC 25586; experiment: MIC, anaerobic agar dilution (CLSI); conditions: ATCC25586, 35° C., 42-48 hours
[20] = system: Prevotella disiens MMX 3457; experiment: MIC, anaerobic agar dilution (CLSI); conditions: MMX3457, 35° C., 42-48 hours
[21] = system: Gardnerella; experiment: MIC, agar dilution, Gardnerella; conditions: Gardnerella as major BV bacteria
[22] = system: Prevotella disiens MMX 3446; experiment: MIC, anaerobic agar dilution (CLSI); conditions: MMX3446, 35° C., 42-48 hours
[23] = system: Bifidobacterium longum ATCC 15707; experiment: MIC, anaerobic agar dilution (CLSI); conditions: ATCC15707, 35° C., 42-48 hours
[24] = system: Mobiluncus (mulieris) ATCC 35243; experiment: MIC, anaerobic agar dilution (CLSI); conditions: ATCC35243, 35° C., 42-48 hours
[25] = system: Peptostreptococcus (magnus) ATCC 14956; experiment: MIC, anaerobic agar dilution (CLSI); conditions: Finegoldia magna, ATCC14956, 35° C., 42-48 hours
[26] = system: Lactobacillus crispatus ATCC 33820; experiment: MIC, anaerobic agar dilution (CLSI); conditions: ATCC33820; Lactobacillus crispatus ATCC 33820; anaerobic, 35° C., 42-48 hours; read-out: MIC
[27] = system: Gardnerella vaginalis ATCC 49145; experiment: MIC, anaerobic agar dilution (CLSI); conditions: ATCC49145, 35° C., 42-48 hours
[28] = system: Treponema denticola ATCC 35405; experiment: MIC, anaerobic agar dilution (CLSI); conditions: ATCC35405, 35° C., 42-48 hours
[29] = system: Actinomyces naeslundii ATCC 12104; experiment: MIC, anaerobic agar dilution (CLSI); conditions: ATCC12104, 35° C., 42-48 hours
[30] = system: Anaerococcus (Anaerococcus(prevotii)) ATCC 9321; experiment: MIC, anaerobic agar dilution (CLSI); conditions: 35° C., 42-48 hours
[31] = system: Bifidobacterium (breve) ATCC 15698; experiment: MIC, anaerobic agar dilution (CLSI); conditions: ATCC15698, 35° C., 42-48 hours
[32] = system: Bacteroides fragilis (MET^R) MMX 3387; experiment: MIC, anaerobic agar dilution (CLSI); conditions: Bacteroides fragilis (MET^R) MMX 3387; anaerobic, 35° C., 42-48 hours; read-out: MIC
[33] = system: Bacteroides vulgatus (MET^R) MMX 3490; experiment: MIC, anaerobic agar dilution (CLSI); conditions: Phocaeicola vulgatus; Bacteroides vulgatus (MET^R) MMX 3490; anaerobic, 35° C., 42-48 hours; read-out: MIC
[34] = system: Atopobium vaginae BAA-55; experiment: MIC, anaerobic agar dilution (CLSI); conditions: Fannyhessea vaginae, BAA55; Atopobium vaginae BAA-55; anaerobic, 35° C., 42-48 hours; read-out: MIC
[35] = system: Eubacterium (rectale) ATCC 33656; experiment: MIC, anaerobic agar dilution (CLSI); conditions: Agathobacter rectalis, ATCC33656, 35° C., 42-48 hours
[36] = system: Prevotella bivia (MET^R) MMX 3454; experiment: MIC, anaerobic agar dilution (CLSI); conditions: 35° C., 42-48 hours
[37] = system: Mobiluncus (curtisii subsp. curtisii) ATCC 35241; experiment: MIC, anaerobic agar dilution (CLSI); conditions: ATCC35241, 35° C., 42-48 hours
[38] = system: Clostridium sporogenes ATCC 19404; experiment: MIC, anaerobic agar dilution (CLSI); conditions: ATCC19404, 35° C., 42-48 hours
[39] = system: Lactobacillus gasseri ATCC 33323; experiment: MIC, anaerobic agar dilution (CLSI); conditions: ATCC33323; Lactobacillus gasseri ATCC 33323; anaerobic, 35° C., 42-48 hours; read-out: MIC

SMILES: CO[C@H]1/C=C/O[C@@]2(C)Oc3c(C)c(O)c4c(O)c(c(/C=N/N5CCN(C)CC5)c(O)c4c3C2=O)NC(=O)/C(C)=C\C=C\[C@H](C)[C@H](O)[C@@H](C)[C@@H](O)[C@@H](C)[C@H](OC(C)=O)[C@@H]1C [Rifampicin]
- MIC [1]: 4 µg/mL (≈ 4.86 µM)
- MIC [2]: 1 µg/mL (≈ 1.22 µM)
- MIC [3]: 1 µg/mL (≈ 1.22 µM)
- MIC [4]: 0.004 µg/mL (≈ 0.00486 µM)
- MIC [5]: 0.06 µg/mL (≈ 0.0729 µM)
- MIC [6]: 1 µg/mL (≈ 1.22 µM)
- MIC [7]: 0.004 µg/mL (≈ 0.00486 µM)
- MIC [8]: 0.5 µg/mL (≈ 0.608 µM)
- MIC [9]: 0.004 µg/mL (≈ 0.00486 µM)
- MIC [10]: 0.25 µg/mL (≈ 0.304 µM)
- MIC [11]: 16 µg/mL (≈ 19.4 µM)
- MIC [12]: 0.5 µg/mL (≈ 0.608 µM)
- MIC [13]: 0.5 µg/mL (≈ 0.608 µM)
- MIC [14]: 0.004 µg/mL (≈ 0.00486 µM)
- MIC [15]: 0.5 µg/mL (≈ 0.608 µM)
- MIC [16]: 0.25 µg/mL (≈ 0.304 µM)
- MIC [17]: 0.5 µg/mL (≈ 0.608 µM)
- MIC [18]: 0.12 µg/mL (≈ 0.146 µM)
- MIC [19]: 0.5 µg/mL (≈ 0.608 µM)
- MIC [20]: 0.5 µg/mL (≈ 0.608 µM)
- MIC [21]: 0.5 µg/mL (≈ 0.608 µM)
- MIC [22]: 0.12 µg/mL (≈ 0.146 µM)
- MIC [23]: 0.5 µg/mL (≈ 0.608 µM)
- MIC [24]: 0.004 µg/mL (≈ 0.00486 µM)
- MIC [25]: 1 µg/mL (≈ 1.22 µM)
- MIC [26]: 2 µg/mL (≈ 2.43 µM)
- MIC [27]: 0.5 µg/mL (≈ 0.608 µM)
- MIC [28]: 0.004 µg/mL (≈ 0.00486 µM)
- MIC [29]: 0.03 µg/mL (≈ 0.0365 µM)
- MIC [30]: 0.03 µg/mL (≈ 0.0365 µM)
- MIC [31]: 0.25 µg/mL (≈ 0.304 µM)
- MIC [32]: 0.25 µg/mL (≈ 0.304 µM)
- MIC [33]: 0.25 µg/mL (≈ 0.304 µM)
- MIC [34]: 0.25 µg/mL (≈ 0.304 µM)
- MIC [35]: 0.015 µg/mL (≈ 0.0182 µM)
- MIC [36]: 0.004 µg/mL (≈ 0.00486 µM)
- MIC [37]: 0.004 µg/mL (≈ 0.00486 µM)
- MIC [38]: 1 µg/mL (≈ 1.22 µM)
- MIC [39]: 0.25 µg/mL (≈ 0.304 µM)

Source: patent US20200093807A1, “NEW USE OF RIFAMYCIN-NITROIMIDAZOLE CONJUGATE MOLECULE” (TenNor Therapeutics Limited, priority 2017, published 2020)
